Data as given in patent US11911358B2, “Dicarboxylic acid esters for inducing an analgesic effect” (NEW FRONTIER LABS, LLC, priority 2020, dated 2024).

Key:
EpiDerm tissues [1] = assay: EpiDerm bioassay: cytokine, chemokine and growth factor levels by multiplexed immunoassay after croton oil insult; format: cell-based, human; conditions: 24 hours; for G-CSF, percentage of the control / GM-CSF, percentage of the control / IL-1ra, percentage of the control / IL-10, percentage of the control / IL-13, percentage of the control / Leptin, percentage of the control / PGE2, percentage of the control / IL-4, percentage of the control: EpiDerm + 0.1% croton oil, percent difference vs croton oil alone; for IL-4, percentage of the control: 25% azelaic acid Na salt, 1% salicylic acid Na salt, 1% green tea extract, 1 μg/mL doxycycline hyclate (doxorubicin), 1% 4-ethoxybenzaldehyde, 0.025% all-trans retinoic acid
Description: Multiplexed immunoassays: […] Izbicka, et al., Cancer Genomics Proteomics (2012) 9(1):27-35]. Multiplexed immunoassays were performed using Luminex 100 IS System (Luminex Corporation, Austin, TX). Analyte concentrations were calculated from the standard curves using Bio-Plex Manager 4.1.1 (Bio-Rad Laboratories, Hercules, CA). EpiDerm Bioassays: The EpiDermTM 3-Dimensional Skin Model was purchased from MatTek Corporation (Ashland, MA). […] Conditioned media were collected, the remaining cells were homogenized on ice in the presence of protease and phosphatase inhibitors, and the lysates were clarified by centrifugation. The media and cell lysates were snap frozen at -70° C. Proteins were resolved by gel electrophoresis and visualized in immunoblots with human-specific antibodies to inducible nitric oxide synthase (iNOS), S-nitrosocysteine, and superoxide dismutase 2 (all from Abcam, Cambridge, MA). […] Croton oil (a chemical irritant) was used as a control. The results are shown as percent difference in marker levels in tissues treated with the test articles and those treated with croton oil alone. (Table 1). […] This pattern of tandem upregulation of examined markers in concert with downregulation of PGE2 was unique for DEA and was not observed with any other test article.

human PBMCs = format: cell-based; conditions: 0.5% DEA, confocal microscopy (FIG. 3)
PBMCs = assay: Membrane fluidity measurement (pyrenedecanoic acid excimer fluorescence); format: cell-based, human; conditions: 0.5% DEA
Description: Isolation of human peripheral blood mononuclear cells: Fresh human peripheral blood mononuclear cells (PBMC) specimens were obtained from healthy volunteers. The blood was collected into BD Vacutainer CPT Cell Preparation Tubes (Beckton Dickinson, Franklin Lakes, NJ) and centrifuged at 1,500×g at room temperature and PBMCs were isolated according to supplier's protocol. Cell counts and viability assessment using trypan blue exclusion were measured using hemocytometer. Membrane fluidity measurements: Membrane fluidity was measured using Membrane Fluidity Kit (PN […], Marker Gene Technologies, Eugene, OR). […] The fluorescence of the excimer (excitation at 355 nm, emission at 460 nm) was corrected for the monomer (excitation at 355 nm, emission at 400 nm). The inventors of the present disclosure have shown that altered membrane protein function with a U-shaped dose response. […] Physiological consequences of DEA membrane fluidizing activity were further investigated in human plasmacytoid dendritic cells, which express multiple PRRs including TLRs, NOD and dectin-1 receptors. Human plasmacytoid dendritic cells were stimulated with the receptor agonists alone or in combination with 0.5% DEA.

Balb/c mice = assay: Hot plate test, hind limb response latency; format: in vivo; conditions: 100% (neat) DEA topical to hind limb 5 minutes before test, 42° C., male mice; vs untreated control, p=0.03
Description: In vivo studies: Animal studies and all procedures were performed in compliance with the Animal Welfare Act Regulations (9 CFR 3) and the NIH guidelines for the care and use of laboratory animals at New Frontier Labs LLC, San Antonio, TX Both male and female Balb/c mice 8-10 weeks old weighing approximately 25 g were purchased from Taconic Farms (Hudson, NY). Animals were acclimatized for at least 72 hours after delivery. Prior to experiments the animals were randomized into treatment and control groups. For the assessment of nociceptive effect of DEA, only male mice were used (n=8 per group). The hot plate test was performed at a constant temperature of 42° C. as described in S. Hunskaar, et al., Eur. J. Pharmacol. 1985; 111(2):221-6, which is incorporated herein by reference. DEA was administered neat (100%) or diluted in ethanol (vehicle) to the hind limb. The treatments were administered 5 minutes prior to the heat test. The time between the heat exposure to the first incidence of animal licking the hind paw was measured with a stopwatch.
Statistical analysis: Statistical analysis was done using Student t statistic; p values <0.05 were considered significant. All samples/data were included in the analysis. Continuously distributed outcomes were summarized with the mean and standard deviation. […]

EpiDerm tissues [2] = assay: EpiDerm croton oil irritant toxicity: proliferation and viability assays, microscopic inspection; format: cell-based, human; conditions: 25% DEA, 0.1% croton oil
Description: Cell proliferation and cytotoxicity assays: CellTiter 96 Non-Radioactive Cell Proliferation Assay (MTT), CellTiter 96 AQueous One Solution Cell Proliferation Assay (MTS) and CellTiter-Glo Luminescent Cell Viability (ATP) kits were purchased from Promega (Madison, WI). Protein concentration was measured using Micro BCA protein assay kit (Pierce Biotechnology, Rockford, IL). EpiDerm Bioassays: The EpiDerm™ 3-Dimensional Skin Model was purchased from MatTek Corporation (Ashland, MA). […] Conditioned media were collected, the remaining cells were homogenized on ice in the presence of protease and phosphatase inhibitors, and the lysates were clarified by centrifugation. The media and cell lysates were snap frozen at −70° C. Proteins were resolved by gel electrophoresis and visualized in immunoblots with human-specific antibodies to inducible nitric oxide synthase (iNOS), S-nitrosocysteine, and superoxide dismutase 2 (all from Abcam, Cambridge, MA). […] Croton oil (a chemical irritant) was used as a control. The results are shown as percent difference in marker levels in tissues treated with the test articles and those treated with croton oil alone. (Table 1). […] This pattern of tandem upregulation of examined markers in concert with downregulation of PGE2 was unique for DEA and was not observed with any other test article.

[3] = tested on: human plasmacytoid dendritic cells; assay: ATP release and signaling with PRR agonists in plasmacytoid dendritic cells; format: cell-based; conditions: 0.5% DEA, 24 hours
Description: Cell proliferation and cytotoxicity assays: CellTiter 96 Non-Radioactive Cell Proliferation Assay (MTT), CellTiter 96 AQueous One Solution Cell Proliferation Assay (MTS) and CellTiter-Glo Luminescent Cell Viability (ATP) kits were purchased from Promega (Madison, WI). Protein concentration was measured using Micro BCA protein assay kit (Pierce Biotechnology, Rockford, IL).
Pathogen-associated molecular pattern receptor agonist studies: PRR agonist kits; human Toll-like receptor (TLR1-9; n=9 agonists), nucleotide oligomerization domain (NOD) NOD1/NOD2 (n=10 agonists, denoted n1, n2, . . . , n10) and dectin-1 (a single agonist) were purchased from InvivoGen, San Diego, CA Plasmacytoid human dendritic cells (MatTek Corporation, Ashland, MA) were diluted to 1.6×10^5 cells/mL and incubated with the agonists at the concentrations in the middle ranges recommended by the supplier in the absence of DEA or with 0.5% DEA for 24 hours. The levels of measured analytes were normalized to the numbers of viable cells.
The inventors of the present disclosure have shown that altered membrane protein function with a U-shaped dose response. At the concentration of 0.5% DEA increased membrane fluidity by 18% above the cholesterol control level. Physiological consequences of DEA membrane fluidizing activity were further investigated in human plasmacytoid dendritic cells, which express multiple PRRs including TLRs, NOD and dectin-1 receptors. […]
Human plasmacytoid dendritic cells (1.6×10^5/ml) were exposed to 20 different PRR agonists alone at the concentrations within physiological ranges of each agonist or in the presence of 0.5% DEA for 24 hours. The results are expressed as the ratios of secreted ATP from the cells treated with the PRR receptor agonists and DEA (treatment groups) to the levels of ATP secreted by the cells treated with the agonists alone (control groups). […] Extracellular levels were measured, and the results were expressed as the ratios of released ATP from the cells+receptor agonist+DEA to the ATP from the cells+receptor agonist alone.

Row | Structure (SMILES) | G-CSF, percentage of the control (EpiDerm tissues [1]) | GM-CSF, percentage of the control (EpiDerm tissues [1]) | IL-1ra, percentage of the control (EpiDerm tissues [1]) | IL-10, percentage of the control (EpiDerm tissues [1]) | IL-13, percentage of the control (EpiDerm tissues [1]) | Leptin, percentage of the control (EpiDerm tissues [1]) | PGE2, percentage of the control (EpiDerm tissues [1]) | IL-4, percentage of the control (EpiDerm tissues [1]; 25% DEA) | effect on pro-inflammatory markers among 57 examined cytokines, chemokines and growth factors (EpiDerm tissues [1]; 25% DEA, 0.1% croton oil) | foci of enhanced cholera toxin B subunit fluorescence on plasma membranes (human PBMCs) | increase of membrane fluidity above the cholesterol control level (PBMCs) | decrease of heat sensitivity (hot plate response latency) (Balb/c mice) | tissue integrity as evaluated by microscopic inspection (EpiDerm tissues [2]) | croton oil irritant toxicity in proliferation and viability assays (EpiDerm tissues [2]; 24 hours) | effect on ATP signaling with NOD receptor ligands n9 and n10 [3] | cellular signaling from all examined PRR ([3]; TLR, NOD, dectin-1 agonists) | ratio of released ATP, cells+receptor agonist+DEA to cells+receptor agonist alone ([3]; all PRR agonists except NOD ligands n9 and n10 (FIG. 1))
1 | O=C(O)c1ccccc1O [Salicylic acid, salicylic acid] | 640% | −7% | 15% | 257% | −46% | 202% | 5% | 40% |  |  |  |  |  |  |  |  | 
2 | COc1cccc2c1C(=O)c1c(O)c3c(c(O)c1C2=O)C[C@@](O)(C(=O)CO)C[C@@H]3O[C@H]1C[C@H](N)[C@H](O)[C@H](C)O1 [Doxorubicin, doxorubicin] | 0% | −3% | 15% | 214% | −38% | 116% | −2% | 80% |  |  |  |  |  |  |  |  | 
3 | CC1=C(/C=C/C(C)=C/C=C/C(C)=C/C(=O)O)C(C)(C)CCC1 [Retinoic acid, all-trans retinoic acid] | 360% | −39% | 20% | 369% | −19% | 36% | 4% | 100% |  |  |  |  |  |  |  |  | 
4 | O=C(O)CCCCCCCC(=O)O [Azelaic acid, azelaic acid] | −100% | −16% | 18% | 152% | −4% | 41% | −1% | 40% |  |  |  |  |  |  |  |  | 
5 | CCOC(=O)CCCCCCCC(=O)OCC [DEA, diethyl azelate] | 561% | 280% | 33% | 200% | 112% | 51% |  | 600% | downregulated most of the pro-inflammatory markers | no foci of enhanced fluorescence were detectable | 18% | 33% | protected tissue integrity | nullified croton oil irritant toxicity | no apparent effect | downregulated cellular signaling from all examined PRR | < 1
6 | CCOc1ccc(C=O)cc1 [4-ethoxybenzaldehyde] | 340% | −26% | 34% | 471% | 34% | 39% | 4% | 80% |  |  |  |  |  |  |  |  | 
